Assay results published in PMC9866588, “Novel 7-Chloro-4-aminoquinoline-benzimidazole Hybrids as Inhibitors of Cancer Cells Growth: Synthesis, Antiproliferative Activity, in Silico ADME Predictions, and Docking” (Molecules, 2023).

Legend:
[1] = system: MDCK1 (Madine–Darby canine kidney) cells; assay: MTT antiproliferative assay, MDCK1; assay type: cell-based; conditions: Canis lupus familiaris, MDCK1, 72 h, mean ± SD of three independent experiments
Procedure: (§1) The growth inhibition activity was assessed according to the slightly modified procedure performed at the National Cancer Institute, Developmental Therapeutics Program.
(§2) The examined compounds were dissolved in DMSO (1 × 10^−2 M). The experiments were carried out on seven human tumor cell lines and a normal cell line. The following cell lines were used: HeLa (human cervical adenocarcinoma; purchased from ATCC), CaCo-2 (human colorectal adenocarcinoma), MCF-7 (human breast adenocarcinoma), CCRF-CEM (human acute lymphoblastic leukemia), Hut78 (T-cell lymphoma), THP-1 (acute monocytic leukemia), Burkitt lymphoma (Raji), and MDCK1 (Madine–Darby canine kidney). The MDCK1 cells were used between 24 and 26 passages.
(§3) The adherent cells were cultured in Dulbecco’s modified Eagle medium—DMEM (Gibco, Termo Fisher Scientific Inc., Leicestershire, England, UK), supplemented with 10% heat-inactivated fetal bovine serum (FBS, Gibco, Termo Fisher Scientific Inc., Leicestershire, England, UK), 2 mM glutamine, and 100U/0.1mg penicillin/streptomycin. The cells in suspension were cultured in RPMI 1640 (Gibco, Termo Fisher Scientific Inc., Leicestershire, England, UK) medium, supplemented with 10% FBS (Gibco, Termo Fisher Scientific Inc., Leicestershire, England, UK), 2 mM glutamine, 1 mM sodium pyruvate, and 10 mM HEPES. The cells were grown in a humidified atmosphere under the conditions of 37 °C/5% of CO2 gas in the CO2 incubator (IGO 150 CELLlife^TM, JOUAN, Thermo Fisher Scientific, Waltham, MA, USA).
(§4) The adherent cells (HeLa, CaCo-2, MCF-7, and MDCK-1) were plated in 96-well flat bottom plates (Greiner, Frickenhausen, Austria) at a concentration of 2 × 10^4 cells/mL. The suspension cells (Raji, THP-1, CCRF-CEM and Hut78) were plated in 96-well microtiter plates (Sarstead, Newton, NC, USA) at a concentration of 1 × 10^5 cells/mL. Twenty-four hours later, the cells were treated with test agents in […] and incubated for a further 72 h. The working dilutions were freshly prepared on the day of testing. The solvent was also tested for eventual inhibitory activity by adjusting its concentration to be the same as in the working concentrations. After 72 h of incubation, the cell growth rate was evaluated by performing the MTT assay, which detects dehydrogenase activity in viable cells. For this purpose, upon completion of the incubation period, the growth medium was discarded and 50 μL of MTT was added to each well at a concentration of 5 mg/mL. After four hours of incubation at 37 °C, the water insoluble MTT-formazan crystals were dissolved in 150 μL of dimethyl-sulfoxide (DMSO) for the adherent cells and in 10% SDS with 0.01 mol/L HCl for the cells grown in suspension. The absorbance (OD, optical density) was measured on a microplate reader (iMark, BIO RAD, Hercules, CA, USA) at 595 nm.
(§5) The percentage of live cells was calculated as follows: % = OD (sample) − OD (background)/OD (control) − OD (background) × 100.
(§6) The optical density (OD) of the background for the adherent cells is the OD of the MTT solution and DMSO; the OD (background) for the suspension cells is the OD of the culture medium with MTT and 10% SDS with 0.01 mol/L HCl; the OD (control) is the OD of the cells grown without the tested compounds.
(§7) The calculation of the GI50 value curves and QC analysis was performed using the Excel tools and GraphPadPrism software (La Jolla, CA, USA), v. 5.03. Briefly, individual concentration effect curves are generated by plotting the logarithm of the concentration of the tested compounds (X) vs. the corresponding percent inhibition values (Y) using the least squares fit. The best-fit GI50 values are calculated using log (inhibitor) versus normalized response—variable slope equation, where Y Ľ 100/(1 ţ 10 ((LogIC50 _ X) × HillSlope)). The QC criteria parameters (Z0, S:B, R2, HillSlope) were checked for every GI50 curve.

[2] = MTT antiproliferative assay, ranges stated over several cell lines; assay type: cell-based; conditions: human (tumor cell lines) and dog (MDCK1); abstract, range over cell lines; read-out: GI50 range (strong cytotoxic activity)
Procedure: as §1, §2, §3, §4, §5, §6, §7

[3] = system: CaCo-2 (human colorectal adenocarcinoma) cells; assay: MTT antiproliferative assay, CaCo-2; assay type: cell-based; conditions: 72 h, mean ± SD of three independent experiments
Procedure: as §1, §2, §3, §4, §5, §6, §7

THP-1 cells = assay: Flow cytometry analysis of cell cycle, THP-1; assay type: cell-based, human; conditions: THP-1, 5 μM, 24 h
Procedure: (§8) To analyze the effects of the selected compounds (5d, 8d, and 12d) on the cell cycle of the HuT78 and THP-1 cells, the cells were seeded in 6-well plates (5 × 10^5 cells per well) and treated for 24 h with the selected compounds 5d and 12d (5 μM). The cells were then collected and fixed in cold 70% ethanol. The fixed samples were stained with 15 µg/mL of propidium iodide (PI) at room temperature and analyzed by flow cytometry (FACS Canto II, BD Biosciences). The results were analyzed using FlowLogic software.
(§9) One-way ANOVA analysis of variance was performed in the MedCalc statistical program for the analysis of the cell cycle. p-values of less than 0.05 were considered to be statistically significant.

[4] = system: MCF-7 (human breast adenocarcinoma) cells; assay: MTT antiproliferative assay, MCF-7; assay type: cell-based; conditions: MCF7, 72 h, mean ± SD of three independent experiments
Procedure: as §1, §2, §3, §4, §5, §6, §7

[5] = system: THP-1 (acute monocytic leukemia) cells; assay: MTT antiproliferative assay, THP-1; assay type: cell-based, human; conditions: for GI50: Homo sapiens, THP-1, 72 h, MTT, mean ± SD of three independent experiments, read-out: GI50 THP1
Procedure: as §1, §2, §3, §4, §5, §6, §7

HuT78 cells [6] = assay: Mitochondrial membrane potential (∆Ψm), TMRE flow cytometry; assay type: cell-based, human; conditions: HuT78, 5 μM, 24 h
Procedure: Changes in the (∆Ψm) were measured using TMRE (tetramethylrhodamine, ethyl ester and perchlorate) dye. In brief, the tested cells (HuT 78) were plated in 6-well plates at a concentration of 5 × 10^5 cells per well and treated with 5 μM of the compounds 5d and 12d. After 24 h of treatment, the cells were collected, centrifuged for 6 min at 1100 rpm, and stained with 200 nM of TMRE dye according to the kit protocol (TMRE Mitochondrial Membrane Potential Assay Kit, abcam, Cambridge, UK). The positive control cells were treated with 20 μM FCCP (carbonyl cyanide-p-trifluoromethoxyphenylhydrazone) for 10 min. The cells were analyzed by flow cytometry (BD FACSCalibur, Becton Dickinson, San Jose, CA, USA) and FlowJo software (FlowJo, LLC, Ashland, OR, USA).

[7] = system: HeLa (human cervical adenocarcinoma) cells; assay: MTT antiproliferative assay, HeLa; assay type: cell-based; conditions: 72 h, mean ± SD of three independent experiments
Procedure: as §1, §2, §3, §4, §5, §6, §7

[8] = system: Hut78 (T-cell lymphoma) cells; assay: MTT antiproliferative assay, HuT78; assay type: cell-based, human; conditions: for GI50: Homo sapiens, HuT78, 72 h, MTT, mean ± SD of three independent experiments; for tumor selectivity index (SI) HuT78: with respect to MDCK1 cells
Procedure: as §1, §2, §3, §4, §5, §6, §7

[9] = system: CCRF-CEM (human acute lymphoblastic leukemia) cells; assay: MTT antiproliferative assay, CCRF-CEM; assay type: cell-based; conditions: for GI50: Homo sapiens, CCRF-CEM, 72 h, MTT, mean ± SD of three independent experiments
Procedure: as §1, §2, §3, §4, §5, §6, §7

HuT78 cells [10] = assay: Flow cytometry analysis of cell cycle, HuT78; assay type: cell-based, human; conditions: HuT78, 5 μM, 24 h
Procedure: as §8, §9

HuT78 cells [11] = assay: Annexin V-FITC/PI apoptosis detection; assay type: cell-based, human; conditions: HuT78, 5 μM, 24 h
Procedure: The proapoptotic potential of compounds 5d and 12d was tested on the HuT78 cells using the Annexin V-FITC Apoptosis Staining/Detection Kit (ab14085; abcam, UK). The cells were plated in 6-well plates at a concentration of 5 × 10^5 cells/well and treated for 24 h with 12d at a concentration of 5 μM. After the incubation period, the cells were collected and centrifuged at 1100 rpm for 6 min, stained according to the manufacturer‘s protocol, and analyzed by flow cytometry (BD FACSCalibur, Becton Dickinson, San Jose, CA, USA) using FlowJo software (FlowJo, LLC, Ashland, OR, USA).

[12] = system: Raji (Burkitt lymphoma) cells; assay: MTT antiproliferative assay, Raji; assay type: cell-based, human; conditions: for GI50: Homo sapiens, Raji, 72 h, MTT, mean ± SD of three independent experiments
Procedure: as §1, §2, §3, §4, §5, §6, §7

[13] = system: normal (MDCK1) and tumor cell lines; assay: MTT antiproliferative assay, ranges stated over several cell lines; assay type: cell-based; conditions: MDCK1 and carcinoma cell lines; read-out: GI50, normal and carcinoma cells
Procedure: as §1, §2, §3, §4, §5, §6, §7

O=C(NCCNc1ccnc2cc(Cl)ccc12)c1ccc(-c2nc3ccccc3[nH]2)cc1 [Compound 12d, 4-(1H-benzo[d]imidazol-2-yl)-N-(2-(7-chloroquinolin-4-ylamino)ethyl)benzamide]
GI50 [1]: 100 µM | GI50 at 72 h [2]: 0.4 to 8 µM | GI50 [3]: 16.4 ± 5.6 µM | changes in the other phases of the cell cycle (other than subG0/G1) (THP-1 cells): not statistically significant | increase of cells in subG0/G1 phase (THP-1 cells; vs control): 3.4 times | GI50 [4]: 20 ± 7.2 µM | GI50 [5]: 4 ± 0.8 µM | cells with mitochondrial membrane disruption / change in ∆Ψm (HuT78 cells [6]): more than 85% | GI50 [7]: 100 µM | GI50 [8]: 3.5 ± 1.5 µM | tumor selectivity index (SI) HuT78 [8]: 28.5 | GI50 [9]: 17.2 ± 7.7 µM | proportion of polyploid giant cancer cells (HuT78 cells [10]): increased proportion | increase of cells in subG0/G1 phase (HuT78 cells [10]; vs control): 46 times | decrease in G0/G1 phase (HuT78 cells [10]; vs non-treated cells): 63.8% | cells in early apoptosis (HuT78 cells [11]): 3.97% | cells in late stage of apoptosis/necrosis (HuT78 cells [11]): 83.75% | GI50 [12]: 57.7 ± 23.8 µM

Clc1ccc2c(N3CCN(c4ccc(-c5nc6ccccc6[nH]5)cc4)CC3)ccnc2c1 [Compound 8d, 4-(4-(4-(1H-benzo[d]imidazol-2-yl)phenyl)piperazin-1-yl)-7-chloroquinoline]
GI50 [1]: > 100 µM | GI50 at 72 h [2]: 0.4 to 8 µM | GI50 [13]: > 100 µM | GI50 [3]: > 100 µM | changes in the cell cycle (THP-1 cells; vs non-treated cells): no significant changes | GI50 [4]: > 100 µM | GI50 [5]: 3.2 ± 1.1 µM | tumor selectivity index (SI) THP1 ([5]; with respect to MDCK1 cells): > 31.5 | GI50 [7]: > 100 µM | GI50 [8]: 8.1 ± 4.7 µM | tumor selectivity index (SI) HuT78 [8]: > 12.3 | GI50 [9]: 5 ± 2.6 µM | tumor selectivity index (SI) CCRF CEM ([9]; with respect to MDCK1 cells): > 20 | changes in the cell cycle (HuT78 cells [10]; vs non-treated cells): no significant changes | GI50 [12]: 3.8 ± 0.5 µM | tumor selectivity index (SI) Raji ([12]; with respect to MDCK1 cells): > 26.3
